Data as given in patent publication US12433877B2, “Sustained release drug delivery systems and related methods” (Durect Corporation, priority 2021, dated 2025).
Where a name gives a salt, the structure may show the parent alone.

Key:
pregnant rats = conditions: rat, in vivo
Procedure: (§1) Bupivacaine hydrochloride was administered subcutaneously to rats at doses of 4.4, 13.3, & 40 mg/kg and to rabbits at doses of 1.3, 5.8, & 22.2 mg/kg during the period of organogenesis (implantation to closure of the hard palate). The high doses are approximately 0.6 times the daily maximum recommended human dose (MRHD) of 660 mg/day on a mg/m^2 body surface area (BSA) basis.

[1] = Example 18: plasma pharmacokinetics by cohort; assay type: in vivo, human; conditions: Cohort 2; total bupivacaine in plasma
Procedure: Plasma PK samples were analyzed for determination of total bupivacaine concentration only and none of the samples were analyzed for determination of free drug concentration.

pregnant rabbits = experiment: Embryo-fetal development study, subcutaneous, rabbits; assay type: in vivo
Procedure: (§2) There are no studies conducted with Formulation A in pregnant women. […] Based on animal data, advise pregnant women of the potential risks to a fetus. [see Data]
as §1

[2] = test system: patients undergoing elective arthroscopic shoulder surgery; experiment: Example 1 / Study 1: pain intensity and opioid rescue after arthroscopic shoulder surgery; assay type: in vivo, human; conditions: ITT, HCl
[3] = human, in vivo
[4] = test system: patients, abdominal surgeries; experiment: Adverse reactions pooled from laparoscopic, laparoscopically-assisted and open abdominal surgery studies; assay type: in vivo, human; conditions: adjusted percentage
[5] = test system: patients undergoing elective arthroscopic shoulder surgery; experiment: Example 1 / Study 1: adverse events and 6-month follow-up safety; assay type: in vivo, human
Text: The incidence of adverse events (AEs); the incidence of bupivacaine-related CNS side effects; clinical laboratory tests; vital signs; 12-lead ECGs; and physical examinations.
Evaluation by the investigator of wound healing and tissue conditions at the surgical wound on Days 7 and 14, and at the 6-month follow-up visit. An MRI of the shoulder as well as a functionality assessment of the shoulder using the Constant-Murley score were to be performed at the 6-month follow-up visit.
There were three studies evaluating the safety of Formulation A administered during shoulder surgery. […]
Additional follow-up safety data consisting of shoulder MRI, physical examination of the shoulder, and assessments of wound healing were collected at 6 months in Study 1 and at 18 months in Study 2. […]

rats = experiment: Rat pre- and post-natal development study; assay type: in vivo; conditions: 40 mg/kg subcutaneous, implantation through weaning
Procedure: as §2
The high dose is approximately 0.6 times the daily MRHD of 660 mg/day on a BSA basis.

[6] = test system: patients undergoing a variety of general surgical procedures; experiment: Example 18: general surgical procedures (laparotomy, laparoscopic cholecystectomy, colectomy), pain and opioid use; assay type: in vivo, human; conditions: ITT; for Repeated Measures Pain Intensity on Movement 0-72 Hours, LS Mean: All Timepoints 0-72 hr, LogPad scores only

CCCCN1CCCCC1C(=O)Nc1c(C)cccc1C (stereo not shown) [Bupivacaine HCl]
Embryo-fetal effects at the high dose (pregnant rats): No embryo-fetal effects were observed | Tmax Median [1]: 1 h | Embryo-fetal deaths at the high dose (pregnant rabbits; 22.2 mg/kg subcutaneous, organogenesis, rabbits): An increase in embryo-fetal deaths was observed | Fetal No Observed Adverse Effect Level (pregnant rabbits; female, rabbit, in vivo): approximately 0.2 times the MRHD | Total IV morphine equivalent dose of opioid rescue medication, median ([2]; 0-72 hours after surgery): 8.0 mg | Time to first use of opioid rescue medication, median (95% CI) ([2]; Kaplan-Meier): 1.4 (1.0, 4.1) hours | Cmax (min, max), free bupivacaine [3]: (0.3, 10.1) ng/mL | Adverse reaction: Abdominal distension [4]: (4.8%) | Adverse reaction: Abdominal pain [4]: (0.5%) | Adverse reaction: Abdominal pain upper [4]: (1.0%) | Adverse reaction: Anemia [4]: (0.7%) | Adverse reaction: Body temperature increased [4]: 0% | Adverse reaction: Chest pain [4]: (0.5%) | Adverse reaction: Constipation [4]: (41.8%) | Adverse reaction: Cough [4]: (1.8%) | Adverse reaction: Diarrhea [4]: (5.5%) | Adverse reaction: Dizziness [4]: (30.1%) | Adverse reaction: Dry mouth [4]: (1.0%) | Adverse reaction: Dysgeusia [4]: (16.9%) | Adverse reaction: Dyspepsia [4]: (1.9%) | Adverse reaction: Flatulence [4]: (4.0%) | Adverse reaction: Headache [4]: (32.3%) | Adverse reaction: Hypertension [4]: (3.6%) | Adverse reaction: Hypokalemia [4]: (1.4%) | Adverse reaction: Ileus [4]: (0.7%) | Adverse reaction: Incision site erythema [4]: (2.7%) | Adverse reaction: Incision site hematoma [4]: (1.7%) | Adverse reaction: Incision site hemorrhage [4]: (3.0%) | Adverse reaction: Incision site infection [4]: (2.5%) | Adverse reaction: Insomnia [4]: (2.9%) | Adverse reaction: Musculoskeletal pain [4]: (4.9%) | Adverse reaction: Nasopharyngitis [4]: 0% | Adverse reaction: Nausea [4]: (59.6%) | Adverse reaction: Oropharyngeal pain [4]: (1.0%) | Adverse reaction: Pain in extremity [4]: (2.8%) | Adverse reaction: Paresthesia [4]: (13.1%) | Adverse reaction: Post procedural contusion (bruising) [4]: (61.8%) | Adverse reaction: Post procedural discharge [4]: (4.4%) | Adverse reaction: Procedural pain [4]: (17.8%) | Adverse reaction: Pruritus [4]: (18.7%) | Adverse reaction: Pyrexia [4]: (5.7%) | Adverse reaction: Rash [4]: (3.8%) | Adverse reaction: Somnolence [4]: (41.0%) | Adverse reaction: Urinary retention [4]: (1.2%) | Adverse reaction: Vomiting [4]: (21.0%) | Adverse reaction: Wound dehiscence [4]: (1.5%) | Constant-Murley score decreased from baseline ([5]; 6-month follow-up): (0%) | Constant-Murley score, follow-up, mean ([5]; 6-month follow-up): 65.6 | Shoulder MRI: Improved compared with pre-surgical MRI ([5]; 6-month follow-up): (24.0%) | Shoulder MRI: No change compared with pre-surgical MRI ([5]; 6-month follow-up): (36.0%) | Shoulder MRI: Worsened compared with pre-surgical MRI ([5]; 6-month follow-up): (40%) | Adverse reaction: Electrocardiogram T wave inversion ([5]; Table 4.1, Study 1): 0% | Adverse reaction: Headache ([5]; Table 4.1, Study 1): 1 (3.4%) | Adverse reaction: Hypoesthesia ([5]; Table 4.1, Study 1): 1 (3.4%) | Adverse reaction: Pruritus generalized ([5]; Table 4.1, Study 1): 0% | All TEAEs ([5]; safety population): 37.9% | TEAE: Alanine aminotransferase increased ([5]; safety population): 0.0% | TEAE: Cardiac disorders ([5]; safety population): 10.3% | TEAE: Gastrointestinal disorders ([5]; safety population): 3.4% | TEAE: General disorders and administration site conditions ([5]; safety population): 0.0% | TEAE: Headache ([5]; safety population): 3.4% | TEAE: Injury, poisoning and procedural complications ([5]; safety population): 0.0% | TEAE: Investigations ([5]; safety population): 6.9% | TEAE: Musculoskeletal and connective tissue disorders ([5]; safety population): 6.9% | TEAE: Musculoskeletal pain ([5]; safety population): 6.9% | TEAE: Nausea ([5]; safety population): 3.4% | TEAE: Nervous system disorders ([5]; safety population): 13.8% | TEAE: Respiratory, thoracic and mediastinal disorders ([5]; safety population): 6.9% | TEAE: Skin and subcutaneous tissue disorders ([5]; safety population): 6.9% | Pup survival at the high dose (rats): decreased pup survival was observed | Repeated Measures Pain Intensity on Movement 0-72 Hours, LS Mean ([6]; Cohort 1 (Laparotomy)): 5.9 | Total Morphine-equivalent Opioid Medication Use, MEDD 0-72 hours, Median ([6]; Cohort 1 (Laparotomy)): 63.0 mg | Repeated Measures Pain Intensity on Movement 0-72 Hours, LS Mean ([6]; Cohort 2 (Laparoscopic Cholecystectomy)): 3.6
